The values below come from US9238656B2, “Imidazo[4,5-b]pyridine derivatives as ALK and JAK modulators for the treatment of proliferative disorders” (priority 2012, dated 2016).

The conditions of series [1]: 30 mg BID, kidney allograft recipients; cited from earlier work.
Series [2] deals with baculovirus-expressed ALK (Homo sapiens, UniProt Q9UM73). The experiment in a line: ALK kinase inhibition, TRF/ELISA. Type of series: biochemical. Conditions: read-out: ALK Potency. In outline:
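Eu-PT66 anti-phosphotyrosine TRF read-out measured phosphorylation of plate-bound GST-PLC-γ (coated at 10 μg/mL). The phosphorylation was driven by 30 ng/mL ALK for 15 minutes at 37° C.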
(In an ELISA, binding on a coated surface is turned into a signal by an enzyme label.)

Series [3] concerns the target baculovirus-expressed JAK2 kinase (Homo sapiens, UniProt O60674). The experiment in a line: biochemical. The following applies: 0.2 μM ATP; read-out: JAK2 Potency. In outline:
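IC50 derived by variable-slope sigmoidal fit of percent inhibition against log compound concentration. Baculovirus-expressed JAK2 (15 ng/mL) phosphorylated a plate-bound biotinylated 15-mer peptide for 20 min at room temperature; detection by time-resolved fluorescence.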

baculovirus-expressed ALK, sequence (Q9UM73 19-1620): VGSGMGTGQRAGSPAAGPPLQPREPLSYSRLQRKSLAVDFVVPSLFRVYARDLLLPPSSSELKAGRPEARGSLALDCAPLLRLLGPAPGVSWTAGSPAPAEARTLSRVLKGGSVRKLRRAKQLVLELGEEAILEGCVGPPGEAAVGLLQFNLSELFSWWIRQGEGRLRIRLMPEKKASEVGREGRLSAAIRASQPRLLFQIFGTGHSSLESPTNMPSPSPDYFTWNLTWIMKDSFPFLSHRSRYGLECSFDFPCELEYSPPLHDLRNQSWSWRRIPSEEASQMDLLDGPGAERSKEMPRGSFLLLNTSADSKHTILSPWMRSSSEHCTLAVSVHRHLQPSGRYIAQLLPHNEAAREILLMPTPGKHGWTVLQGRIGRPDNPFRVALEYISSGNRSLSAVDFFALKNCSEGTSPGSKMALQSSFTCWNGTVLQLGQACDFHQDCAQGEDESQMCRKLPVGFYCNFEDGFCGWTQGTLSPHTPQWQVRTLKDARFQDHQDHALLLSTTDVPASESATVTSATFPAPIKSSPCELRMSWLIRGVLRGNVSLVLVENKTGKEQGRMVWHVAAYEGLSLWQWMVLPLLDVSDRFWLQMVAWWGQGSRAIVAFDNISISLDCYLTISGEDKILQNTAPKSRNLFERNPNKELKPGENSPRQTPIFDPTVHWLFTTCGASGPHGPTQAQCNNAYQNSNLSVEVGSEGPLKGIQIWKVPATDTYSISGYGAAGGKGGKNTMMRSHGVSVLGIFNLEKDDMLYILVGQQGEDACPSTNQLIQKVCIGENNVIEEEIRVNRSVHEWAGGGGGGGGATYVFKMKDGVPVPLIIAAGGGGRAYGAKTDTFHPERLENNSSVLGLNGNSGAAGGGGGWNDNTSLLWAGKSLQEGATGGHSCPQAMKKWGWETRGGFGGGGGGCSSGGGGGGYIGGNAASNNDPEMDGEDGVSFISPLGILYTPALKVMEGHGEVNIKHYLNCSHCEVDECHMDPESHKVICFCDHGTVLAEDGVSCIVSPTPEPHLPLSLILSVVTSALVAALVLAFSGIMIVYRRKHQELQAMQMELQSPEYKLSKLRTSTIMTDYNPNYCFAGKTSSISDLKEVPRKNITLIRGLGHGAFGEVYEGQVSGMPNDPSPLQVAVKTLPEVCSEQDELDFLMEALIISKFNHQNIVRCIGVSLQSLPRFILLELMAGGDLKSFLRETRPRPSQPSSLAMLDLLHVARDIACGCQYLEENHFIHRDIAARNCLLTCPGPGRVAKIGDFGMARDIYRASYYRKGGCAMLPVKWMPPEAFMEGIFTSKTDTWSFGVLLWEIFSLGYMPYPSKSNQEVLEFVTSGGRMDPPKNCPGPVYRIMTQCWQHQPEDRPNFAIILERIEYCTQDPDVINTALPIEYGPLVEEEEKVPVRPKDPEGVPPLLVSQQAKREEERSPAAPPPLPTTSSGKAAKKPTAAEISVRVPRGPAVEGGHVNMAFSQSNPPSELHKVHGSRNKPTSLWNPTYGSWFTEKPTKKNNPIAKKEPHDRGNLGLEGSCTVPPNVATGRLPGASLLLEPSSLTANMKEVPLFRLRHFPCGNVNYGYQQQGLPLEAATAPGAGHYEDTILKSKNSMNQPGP
baculovirus-expressed JAK2 kinase, sequence (O60674 whole entry): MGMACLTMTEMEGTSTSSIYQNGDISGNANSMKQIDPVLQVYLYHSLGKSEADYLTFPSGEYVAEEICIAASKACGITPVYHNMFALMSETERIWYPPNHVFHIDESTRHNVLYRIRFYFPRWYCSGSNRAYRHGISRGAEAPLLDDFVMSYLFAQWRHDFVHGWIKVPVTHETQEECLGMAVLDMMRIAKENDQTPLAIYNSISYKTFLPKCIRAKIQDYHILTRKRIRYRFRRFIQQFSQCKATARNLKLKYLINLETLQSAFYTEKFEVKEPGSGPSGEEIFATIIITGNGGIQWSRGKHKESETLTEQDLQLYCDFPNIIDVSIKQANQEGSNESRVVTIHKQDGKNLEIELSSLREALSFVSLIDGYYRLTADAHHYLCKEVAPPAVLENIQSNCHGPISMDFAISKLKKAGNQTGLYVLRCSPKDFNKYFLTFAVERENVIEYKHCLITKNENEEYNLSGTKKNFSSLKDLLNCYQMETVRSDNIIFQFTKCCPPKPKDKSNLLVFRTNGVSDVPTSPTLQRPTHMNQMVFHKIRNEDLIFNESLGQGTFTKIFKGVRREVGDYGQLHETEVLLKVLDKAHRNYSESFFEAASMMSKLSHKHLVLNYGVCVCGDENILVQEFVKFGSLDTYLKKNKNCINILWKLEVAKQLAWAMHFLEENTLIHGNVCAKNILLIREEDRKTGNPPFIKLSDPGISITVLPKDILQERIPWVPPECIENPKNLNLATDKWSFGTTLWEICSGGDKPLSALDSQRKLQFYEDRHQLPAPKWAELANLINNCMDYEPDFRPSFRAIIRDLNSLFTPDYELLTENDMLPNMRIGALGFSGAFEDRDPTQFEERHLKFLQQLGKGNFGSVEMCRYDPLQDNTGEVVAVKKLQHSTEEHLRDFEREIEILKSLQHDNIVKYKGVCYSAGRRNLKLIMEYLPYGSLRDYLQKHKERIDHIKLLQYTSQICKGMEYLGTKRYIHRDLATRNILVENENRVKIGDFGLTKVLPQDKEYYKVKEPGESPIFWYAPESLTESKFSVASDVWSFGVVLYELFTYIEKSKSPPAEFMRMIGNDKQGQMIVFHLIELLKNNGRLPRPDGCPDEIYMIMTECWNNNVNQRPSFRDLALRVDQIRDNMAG

In the case of `C[C@@H]1CCN(C(=O)CC#N)C[C@@H]1N(C)c1ncnc2[nH]ccc12` [CP-690,550], the “subjects developed polyoma-associated nephropathy” value in series [1] is 20%.

As to `NC(=O)[C@@H]1[C@H](Nc2c(Br)cnc3[nH]c(-c4ccc(N5CCOCC5)nc4)nc23)[C@H]2C=C[C@@H]1C2` [Compound CXII, (1S,2S,3R,4R)-3-[6-Bromo-2-(6-morpholin-4-yl-pyridin-3-yl)-3H-imidazo[4,5-b]pyridin-7-ylamino]-bicyclo[2.2.1]hept-5-ene-2-carboxylic acid amide], the melting point was in the range of 288 to 290 °C. The IC50 in series [2] is below 100 nM. Besides, in series [3], the IC50 is below 100 nM.

On to `Cc1ccc(-c2nc3c(N[C@H]4[C@@H](C(N)=O)[C@@H]5C=C[C@H]4C5)c(Br)cnc3[nH]2)o1` [Compound CX, (1S,2S,3R,4R)-3-[6-Bromo-2-(5-methyl-furan-2-yl)-3H-imidazo[4,5-b]pyridin-7-ylamino]-bicyclo[2.2.1]hept-5-ene-2-carboxylic acid amide], for which the melting point is 200 to 201 °C. Further, in series [2], the IC50 lay within 100 to 1000 nM. Besides, the IC50 in series [3] was below 100 nM.

`NC(=O)[C@@H]1[C@H](Nc2c(Br)cnc3[nH]c(-c4cncnc4)nc23)[C@H]2C=C[C@@H]1C2` [Compound CVII, (1S,2S,3R,4R)-3-(6-Bromo-2-pyrimidin-5-yl-3H-imidazo[4,5-b]pyridin-7-ylamino)-bicyclo[2.2.1]hept-5-ene-2-carboxylic acid amide]: the melting point is above 300 °C. Also, the IC50 in series [2] was 100 to 1000 nM. Further, in series [3], the IC50 is below 100 nM.

Take `COC[C@@H](O)CN1CCC(c2ccc(-c3nc4c(N[C@H]5[C@@H](C(N)=O)[C@@H]6C=C[C@H]5C6)c(Cl)cnc4[nH]3)c(OC)c2)CC1` [Compound CXIX, (1S,2S,3R,4R)-3-(6-Chloro-2-{4-[1-((S)-2-hydroxy-3-methoxy-propyl)-piperidin-4-yl]-2-methoxy-phenyl}-3H-imidazo[4,5-b]pyridin-7-ylamino)-bicyclo[2.2.1]hept-5-ene-2-carboxylic acid amide]: the melting point lay within 189 to 191 °C. The IC50 in series [2] was below 100 nM. Further, the IC50 in series [3] is below 100 nM.

On to `NC(=O)[C@@H]1[C@H](Nc2c(Cl)cnc3[nH]c(-c4cccc(C(=O)NC(CO)C(=O)O)c4)nc23)[C@H]2C=C[C@@H]1C2` (stereo partly drawn) [Compound CCXXIX, 2-(3-(7-((1R,2R,3S,4S)-3-carbamoylbicyclo(2.2.1)hept-5-en-2-ylamino)-6-chloro-3H-imidazo[4,5-b]pyridine-2-yl)benzamido)-3-hydroxypropanoic acid], for which the melting point came to 243 °C. The IC50 in series [2] fell in the range of 1000 to 10000 nM. Moreover, the IC50 in series [3] was below 100 nM.

The compound `COc1cc(C2CCN(C[C@@H](C)O)CC2)ccc1-c1nc2c(N[C@H]3[C@@H](C(N)=O)[C@@H]4C=C[C@H]3C4)c(Cl)cnc2[nH]1` [Compound CXVI] came in with a melting point above 120 °C. In series [2], the IC50 was below 100 nM. Also, in series [3], the IC50 is below 100 nM.

Turning to `COc1cc(CN2CCN(C[C@@H](C)O)CC2)ccc1-c1nc2c(N[C@H]3[C@@H](C(N)=O)[C@@H]4C=C[C@H]3C4)c(Cl)cnc2[nH]1` [Compound XLIV, (1S,2S,3R,4R)-3-(6-Chloro-2-{4-[4-((R)-2-hydroxypropyl)-piperazin-1-ylmethyl]-2-methoxyphenyl}-3H-imidazo[4,5-b]pyridine-7-ylamino)-bicyclo[2.2.1]hept-5-ene-2-carboxylic acid amide], the melting point lay in the range of 157 to 159 °C. The IC50 in series [2] is below 100 nM. Further, in series [3], the IC50 was below 100 nM.

The melting point is the temperature, or range, at which the solid turns liquid.
